These results are taken from patent publication US20020049173A1, “Alteration of cellular behavior by antisense modulation of mRNA processing” (priority 1999, published 2002).

In the oligonucleotide strings, read from the 5' end, every base follows the letter of its sugar. An asterisk marks phosphorothioate; unmarked linkages are phosphodiester. Other units and linkages are bracketed, terminal groups are in braces. A string of capitals states the bases alone. e = 2'-O-(2-methoxyethyl) (MOE); [5mC] = 5-methylcytosine

The test system of series [1] is Human IL-5 receptorα membrane form mRNA. The series is described as follows: Human IL-5 receptorα membrane form mRNA expression (18 hr). The class given is cell-based. More on the design: % INHIB'N, human IL-5 receptorα membrane form mRNA / % of CONTROL, human IL-5 receptorα membrane form mRNA: concentration or dose not given beside the values. The source says:
mRNA transcripts encoding the membrane form of the human IL-5 receptorα contain exons 1-10 and 12-14. Exon 11 is spliced out. It is, therefore, possible to target sequences in exons 1-10 which are common to both soluble and membrane forms of the receptor, or to selectively target sequences only present in the membrane form (exons 12-14). Oligonucleotides were also designed to target various intron/exon boundaries downstream of exon 11, with the intention of preventing successful splicing out of exon 11 and thus redirecting splice products away from the membrane form and in favor of the soluble form of IL-5 receptorα.
(§1) A series of oligonucleotides were designed to target various splice sites or (intron-exon boundaries) in the IL-5 receptor mRNA.

The next series concerns Human IL-5 receptorα. The series is described as follows: Human IL-5 receptorα protein expression on the cell surface (36 hr), TF-1 cells. The series is classed as cell-based. More on the design: % INHIB, human IL-5 receptorα protein on the cell surface / % of CONTROL, human IL-5 receptorα protein on the cell surface: concentration or dose not given beside the values.
Text: as §1
ISIS 16746, 16748, 16755 and 16758 inhibited human IL-5 receptorα protein by over 50% in this assay and are therefore preferred. ISIS 16758 and 16755 were chosen for further study.

Series [2] has as its system TF-1 cells. The series is described as follows: Apoptosis induction in TF-1 cells, Annexin-V staining. The following applies: 48 hours, IL-5 0.5 ng/ml. The series is classed as cell-based, human. How it is done:
1×10^6 TF-1 cells cultured in IL-5 (0.5 ng/ml) were collected 48 hours following oligonucleotide treatment (transfection was by electroporation as described in previous examples) and phosphatidylserine expression was detected as a measure of apoptosis using the Annexin-V staining kit (Clontech, Palo Alto, Calif.) according to the manufacturer's instructions. Briefly, cells were resuspended in 0.2 ml of staining buffer (10 mM Hepes, pH 7.4, 140 mM NaCl, 5 mM CaCl2) and […] of propidium iodide (50 μg/ml) and 5 μl of Annexin V reagent were added at 4° C. for 10 minutes. The samples were diluted with FacsFlow (Becton Dickinson, Franklin Lakes N.J.) buffer and analyzed on a Becton Dickinson FACScan.

The subject of series [3] is TF-1 cells. The series is described as follows: IL-5-induced TF-1 cell proliferation, [3H]-thymidine incorporation. The series is classed as cell-based, human. The following applies: for % of control thymidine incorporation: compared to untreated controls. The procedure:
2.5×10^4 TF-1 cells were incubated in 96-well plates in 200 μl complete RPMI in the absence of IL-5 for 16 hours following electroporation. IL-5 (0.5 ng/ml) was added and the cultures were pulsed with 1 μCi of [^3H]-thymidine for the last 8 hours of a 48-hour culture period. The cells were harvested on glass fiber filters and analyzed for thymidine incorporation (proportional to cell proliferation) by liquid scintillation counting.
Results are compared to thymidine incorporation in untreated controls.
On the technique in general: Incorporation of labelled thymidine or its analogues reports DNA synthesis.

Series [4] relates to E-selectin mRNA (Type III polyadenylation signal and site). Kind of series: E-selectin transcript forms by Northern blot in TNF-α-induced HUVEC. The series is classed as cell-based, human. The following applies: increasing oligonucleotide dose, TNF-α 2 hours. The procedure: (§2) HUVEC (Clonetics, San Diego, Calif.) were cultivated in endothelial basal media supplemented with 10% fetal bovine serum. Cells were treated with oligonucleotides as described previously (Chiang, 1991, J. Biol. Chem. 27:18162-18171; Vickers, 2000, Nucleic Acids Res. 28:1340-1347). Briefly, cells were incubated with a mixture of Lipofectin (Gibco BRL, Gaithersburg, Md.) and oligonucleotide for 4 hours. Cells were incubated for 2-24 hours, then treated with 5 ng/ml TNF-α for 2-3 hours to induce expression of E-selectin. Cells were then washed extensively with phosphate buffered saline (PBS), fresh complete media was added and cells were incubated at 37° C. until harvested.
(§3) Total RNA was harvested from HUVEC at various times following TNF-α induction using a ToTALLY RNA kit (Ambion) according to the manufacturer's protocol). For Northern blots, RNA was separated on a 1.2% agarose gel containing 1.1% formaldehyde, then transferred to nylon membranes. Blots were hybridized with [^32P]-dCTP random prime labeled cDNA probes specific for E-selectin or […] (G3PDH) for 2 hours in Rapid-hyb solution (Amersham). Blots were washed with 2×SSC containing 0.1% SDS at room temperature, followed by 0.1×SSC containing 0.1% SDS at 60° C. Quantitation of RNA expression was performed using a Molecular Dynamics PhosphorImager. Anchored reverse transcriptase polymerase chain reaction (RT/PCR) was performed essentially as described by Chu et al. (supra.).
HUVEC were treated with 2′-O-methoxyethyl (MOE)/phosphorothioate antisense oligonucleotides directed to the Type III polyadenylation signal and site (Table 1A) as described above. After about 24 hours, cells were treated with TNF-α to induce E-selectin expression. Cells were harvested after 2 hours and RNA was isolated. E-selectin expression was analyzed by Northern blotting. […] With increasing oligonucleotide dose, the longer Type III message decreased while a shorter message increased (FIG. 2). This shorter message most likely represents a combination of Type I and II messages, because the Type II message is just 158 bases longer than the Type I message, and the difference in sizes cannot be resolved on the gel which was used.

Series [5] relates to E-selectin mRNA. Kind of series: Stability of E-selectin messages after TNF-α removal (Northern blot, HUVEC). The series is classed as cell-based, human. The following applies: 200 nM. The procedure: as §2
as §3, with “Anchored reverse transcriptase polymerase chain reaction (RT/PCR) was performed essentially as described by Chu et al. (supra.).” left out

In the next series the test system is E-selectin. The series is described as follows: E-selectin cell surface protein expression by flow cytometry in HUVEC. The following applies: for time of maximal E-selectin protein expression: after addition of TNF-α. The class given is cell-based, human. The procedure: as §2
Following oligonucleotide treatment, cells were detached with D-PBS (without calcium and magnesium) supplemented with 4 mM EDTA. Cells were centrifuged at 5,000 rpm for 1 minute and washed in 2% bovine serum albumin (BSA), 0.2% sodium azide in D-PBS at 4° C. E-selectin-phycoerythrin antibody (Ancell) was then added at 1:100 in 0.1 ml of the above buffer, and incubated for 30 min at 4° C. in the dark. Cells were washed again as above and resuspended in 0.3 ml of PBS buffer with 0.5% formaldehyde. Cells were analyzed for E-selectin expression on a FACScan (Becton-Dickinson). Results are expressed as percentage of control expression based upon the mean fluorescence intensity.
The treated cells were stimulated with TNF-α for 2 hours, then analyzed for E-selectin protein expression by flow cytometry. […] Results at the protein level are not as dramatic as at the RNA level due to the fact that the Type III message remains the predominant RNA species present (FIG. 2). Any change in protein stability resulting from the presence of the type I/II message would likely be partially masked by the more abundant Type III RNA.
A general note: A flow cytometer gives signals particle by particle.

In series [6] the test system is E-selectin mRNA. Kind of series: Non-quantitative RT-PCR of E-selectin Type I, II and III transcripts in HUVEC. The class given is cell-based, human. The following applies: relative to untreated cells, 200 nM stated for ISIS 106344. The procedure: as §3
To determine if processing could be controlled more specifically, oligonucleotides were also designed to the upstream polyadenylation signals. Non-quantitative RT-PCR was used to distinguish among the three forms of the message. In the absence of oligonucleotide, all three types of transcript were detected. […] This difference may be due to variation in the efficiency of PCR amplification on the varying length products, with the shorter Type I and II messages being more efficiently amplified than the Type III product. […] To determine if the effects of ISIS 106344 were unique, antisense oligonucleotides were designed to the Type I and Type II polyadenylation sites.
To evaluate whether treatment with two oligonucleotides would result in the production of a single species of E-selectin message, HUVEC were treated with ISIS 106344, and either ISIS 135568 or ISIS 135570 (150 nM each). […] Cells were also treated with both ISIS 135568 and ISIS 135570.

Turning to “16758 (antisense eT*e[5mC]*eA*eT*e[5mC]*eA*eT*eT*eT*e[5mC]*e[5mC]*eT*eG*eG*eT*eG*eG*eA*eA*eA) [compound 16758]”, in series [1] (18 hr), the “% of CONTROL, human IL-5 receptorα membrane form mRNA” value came to 176%. For the same substance, in the series on Human IL-5 receptorα (36 hr), the “% INHIB, human IL-5 receptorα protein on the cell surface” value was found to be 94.5%. The “% of CONTROL, human IL-5 receptorα protein on the cell surface” value with Human IL-5 receptorα (36 hr) came out at 5.5%. The “% Apoptotic cells” value in the series with TF-1 cells [2] (oligo dose 10 μM) was determined as 33.1%; in the series on TF-1 cells [2] (oligo dose 15 μM), 40.1%; in the series on TF-1 cells [2] (oligo dose 20 μM) it was 50.4%. The “% of control thymidine incorporation” value in the series with TF-1 cells [3] (oligo dose 10 μM) came to 42.8%; in the series with TF-1 cells [3] (oligo dose 15 μM), 39.2%; in the series with TF-1 cells [3] (oligo dose 20 μM), 19.9%.

“18011 (eT*e[5mC]*eA*eG*e[5mC]*eA*eG*eT*eT*eA*e[5mC]*eT*eT*eG*eT*eG*eT*eA*eA*eA) [compound 18011]”: the “% Apoptotic cells” value in the series with TF-1 cells [2] (oligo dose 10 μM) was determined as 19%; in the series with TF-1 cells [2] (oligo dose 15 μM) it was 23.6%; with TF-1 cells [2] (oligo dose 20 μM), 21.8%. Also, the “% of control thymidine incorporation” value is given as 95.6% in the series on TF-1 cells [3] (oligo dose 10 μM), 97.9% with TF-1 cells [3] (oligo dose 15 μM) and 84.6% with TF-1 cells [3] (oligo dose 20 μM).

As a reminder, the IC50 is the concentration that inhibits the measured activity by half. Consider “ISIS 16758: TCATCATTTCCTGGTGGAAA, SEQ ID 35; I11/E12; uniform 2′-MOE (antisense eT*e[5mC]*eA*eT*e[5mC]*eA*eT*eT*eT*e[5mC]*e[5mC]*eT*eG*eG*eT*eG*eG*eA*eA*eA)”, for which the “effect on IL-5 receptorα mRNA levels” value in series [1] was “without reducing mRNA levels”. In the series on Human IL-5 receptorα (36 hr), the “% INHIB, human IL-5 receptorα protein on the cell surface” value is reported as “over 50%”. In addition, the 50% inhibitory concentration (IC50) in the series with Human IL-5 receptorα (TF-1 cells, read-out: IC50 for reduction of IL-5 receptorα cell surface protein) is about 5 µM. Moreover, in the series with TF-1 cells [3] (TF-1 cells), the “cell proliferation in response to IL-5 (summary)” value is “greatly reduces cellular response to IL-5”.

As for “ISIS 106344: CATAAGCACATTTATTGTCA, SEQ ID 66; uniformly 2′-MOE phosphorothioate; E-selectin Type III poly(A) signal (all 2'-MOE, all phosphorothioate, methylation of C not given here)”, in series [4], the “longer Type III E-selectin message (Northern blot)” value is on record as “decreased”; the “shorter E-selectin message (Type I and II) (Northern blot)” value was “increased”. Further, in the series on E-selectin mRNA [5], the “stability of the shorter (type I/II) messages following TNF-α removal” value is reported as “More than half of the shorter messages remained five hours”. Further, in the series with E-selectin mRNA [5] (message printed as type II), the “time following TNF-α removal at which about one half of the type II message remained” value was about 2.5 h. Moreover, in the series with E-selectin (TNF-α 2 hours, versus control oligonucleotide), the “duration of E-selectin protein expression” value is listed as “sustained expression of E-selectin protein”. For the same substance, the “time of maximal E-selectin protein expression” value in the series on E-selectin is “four hours after addition of TNF-α”. For the same substance, in the series on E-selectin mRNA [6], the “Type I E-selectin message (RT-PCR)” value is on record as “increased”, the “Type II E-selectin message (RT-PCR)” value was “increased” and the “Type III E-selectin message (RT-PCR)” value was “decrease”.

With “ISIS 106345: AGAAAGAGACTTAACACAGA, SEQ ID 67; uniformly 2′-MOE phosphorothioate; E-selectin Type III poly(A) site (all 2'-MOE, all phosphorothioate, methylation of C not given here)”, in series [4], the “longer Type III E-selectin message (Northern blot)” value was “decreased”; the “shorter E-selectin message (Type I and II) (Northern blot)” value was “increased”.

For “ISIS 106346: CATCAGAACTTATATAGTCA, SEQ ID 68; 106344 mismatch control (all 2'-MOE, all phosphorothioate, methylation of C not given here) [reference compound]”, the “time of maximal E-selectin protein expression” value in the series with E-selectin is “four hours after addition of TNF-α”.

For “ISIS 135568: GCTTTTATTAGTTCAAAACGTTTGG, SEQ ID 70; E-selectin Type II poly(A) signal (all 2'-MOE, all phosphorothioate, methylation of C not given here)”, in the series on E-selectin mRNA [6], the “Type I E-selectin message (RT-PCR)” value is on record as “corresponding increases”, the “Type II E-selectin message (RT-PCR)” value is “sharp decrease” and the “Type III E-selectin message (RT-PCR)” value is given as “corresponding increases”.

As for “ISIS 135570: CAGAACTTTATTCTGGTTAACATCATG, SEQ ID 71; E-selectin Type I poly(A) signal (all 2'-MOE, all phosphorothioate, methylation of C not given here)”, in the series with E-selectin mRNA [6], the “Type I E-selectin message (RT-PCR)” value is “greatly reduced”, the “Type II E-selectin message (RT-PCR)” value was “increased” and the “Type III E-selectin message (RT-PCR)” value is listed as “increased”.
